Measurements as given in patent EP1487791B1, “A NOVEL ANTIFUNGAL MOLECULE 2-(3,4-DIMETHYL-2,5-DIHYDRO-1H-PYRROL-2-YL)- METHYLETHYL PENTANOATE” (priority 2002, dated 2003).

Experiments:
A. fumigatus [1] = assay: Quantification of colony forming units in organs of infected mice; assay type: in vivo, Balb/C mice
Excerpt: (§1) In vivo efficacy of the compound against A. fumigatus infection was studied in the Balb/C mice of 6-8 weak of age of either sex, weighing 15-20 g each. The mice model of aspergillosis described by Dixon et al (1989), was used to study the effects of compound on in vivo infection of A. fumigatus.
(§2) The animals were housed in the micro-barrier cages on sterile bedding and fed ad libitum water and food. The mice were divided into 6 groups and each group contained 8-10 animals. The mice were infected experimentally with A. fumigatus. Three days prior to infection with conidia, mice were injected subcutaneously with 3 doses (250.0 mg/kg/day) of cortisone acetate in 400.0 µl of PBS. On the infection day, each mouse received 2x10^7 conidia by nasal instillation of a single droplet of conidial suspension. The animals of this model developed invasive aspergillosis and all the infected animals died within 4-6 days.
A. fumigatus (190/96) isolate was grown on Sabouraud dextrose agar plates at 37 °C for 4 days. The conidia were collected from the culture plates using PBS (pH 7.2) containing 0.05% Tween 80 (Sigma Chemicals) and the suspension was filtered through sterile glass wool. The conidia were pelleted by centrifugation at 2000 rpm and re-suspended in PBS, pH 7.2. The number of conidia, was counted and adjusted to 1x10^8 conidia/ml. The viability of the conidia was determined by plating the dilutions of suspensions on Sabouraud dextrose agar.
The dosing of the animals (cortisone treated and challenged) with compound in 6 different groups was initiated within 30 min after challenge with A. fumigatus conidia. Group I: The mice were treated orally with 7 doses of 25.0 mg/kg/day of the compound. Group II: The animals infected with A. fumigatus conidia were given 50.0 mg/kg/day of the compound for 7 days orally. Group III: The animals in this group were given 7 oral doses of 100.0 mg/kg/day of the compound. Group IV: In this group of animals, 7 oral doses of the compound (200.0 mg/kg/day) were given. Group V: The animals of this group were treated with 7 doses of 400.0 mg/kg/day orally over a period of 7 days. Group VI: The animals of this group acted as control and were treated orally with 7 doses of 400 µl PBS containing solvent.
(§3) The mice were kept under constant watch and those getting moribund, dying or survived up to 10 days were sacrificed. The autopsy was performed on the mice who had died to remove their organs for quantification of colony forming units (CFU). The lungs, livers and kidneys of the mice were removed aseptically, placed in sterile PBS (pH 7.2) and homogenized with teflon pestle mortar. The CFU in the animals were determined by plating 10 fold dilutions of organ homogenates on Sabouraud dextrose agar containing 0.05% triton X-100. The triton X-100 limited the colony size and thus greatly facilitated colony counting (Frosco, 1992). After an incubation for 48 h at 37 °C, colonies were counted and results were expressed as CFU per organ. The survival time and CFU indicating the fungal burden in various organs were considered
as §3, with “The survival time and CFU indicating the fungal burden in various organs were considered” left out

A. fumigatus [2] = assay: In vivo efficacy, survival in mice model of aspergillosis; parameters: species or system Balb/C mice; conditions: oral; probit of percent survival against log dose
Excerpt: as §1
as §2, with “The animals of this model developed invasive aspergillosis and all the infected animals died within 4-6 days.” left out
A. fumigatus (190/96) isolate was grown on Sabouraud dextrose agar plates at 37 °C for 4 days. […] The number of conidia, was counted and adjusted to 1x10^8 conidia/ml. The viability of the conidia was determined by plating the dilutions of suspensions on Sabouraud dextrose agar. […]
The animals were housed in properly labeled cages and kept under close watch for weight loss and the mortality. The survival rate over a period of 10 days was calculated and the fungal burden in survivors determined (Clemons and Stevens, 1994). […]

Aspergillus = assay: Disc diffusion assay, overall result for Aspergillus; assay type: cell-based; conditions: concentration developing zone of inhibition of 6.0-mm diameter
Method: Pathogenic strains of fungi were obtained from the Mycology Department of Vallabhbhai Patel Chest Institute, Delhi. All the strains were grown on Sabouraud dextrose agar at 37°C. The conidia form these cultures were harvested and suspended in Sabouraud maltose broth. The number of conidia was counted using haemocytometer and their number in the suspension was adjusted to as per need of the experiment.
The leftover residue was finally dissolved in methanol. Dried fractions were examined for their antifungal activity.
The disc diffusion test was performed as per described in the section of details of invention. Amphotericin B 1.25 µg/disc was used in assay as positive control standard drug. Additional discs impregnated with equivalent amount of solvent were also used in the assay as negative controls (Fig: 5). […] Table 2: Antifungal activity of compound by disc diffusion method

[3] = Group I, 25.0 mg/kg body weight oral
[4] = Group II, 50.0 mg/kg body weight oral
[5] = Group III, 100.0 mg/kg body weight oral
[6] = Group IV, 200.0 mg/kg body weight oral
[7] = Group V, 400.0 mg/kg body weight oral

**Q.** Which “colony counts as compared to controls” value (A. fumigatus [1]; 400 mg/kg body weight, p < 0.001) does the source give for `CCCCC(=O)OC(C)CC1NCC(C)=C1C` (stereo not shown) [PC-1, 2-(3,4-dimethyl-2,5-dihydro-1H-pyrrol-2-yl)-1-methylethyl pentanoate] here?
**A.** reduced the colony counts significantly

**Q.** What about the “number of CFUs in the kidneys” value (A. fumigatus [1]; 100.0 to 400.0 mg/kg body weight) of the same molecule?
**A.** significant reduction

**Q.** And the “CFU/Organs (Mean+ SD) Kidney” value (A. fumigatus [1]; [3])?
**A.** 1402.5+350.09 CFU/Organs

**Q.** And the “CFU/Organs (Mean+ SD) Liver” value (A. fumigatus [1]; [3])?
**A.** 255.0+72.45 CFU/Organs

**Q.** And the “CFU/Organs (Mean+ SD) Lung” value (A. fumigatus [1]; [3])?
**A.** 907.5+246.09 CFU/Organs

**Q.** What about the “CFU/Organs (Mean+ SD) Kidney” value (A. fumigatus [1]; [4]) of the same molecule?
**A.** 1040.5+441.78 CFU/Organs

**Q.** What about the “CFU/Organs (Mean+ SD) Liver” value (A. fumigatus [1]; [4]) of the same molecule?
**A.** 290.6+135.58 CFU/Organs

**Q.** And the “CFU/Organs (Mean+ SD) Lung” value (A. fumigatus [1]; [4])?
**A.** 900.0+230.29 CFU/Organs

**Q.** And the “CFU/Organs (Mean+ SD) Kidney” value (A. fumigatus [1]; [5])?
**A.** 733.3+394.69 CFU/Organs

**Q.** And the “CFU/Organs (Mean+ SD) Liver” value (A. fumigatus [1]; [5])?
**A.** 216.7+108.97 CFU/Organs

**Q.** What about the “CFU/Organs (Mean+ SD) Lung” value (A. fumigatus [1]; [5]) of the same molecule?
**A.** 650.1+171.85 CFU/Organs

**Q.** What about the “CFU/Organs (Mean+ SD) Kidney” value (A. fumigatus [1]; [6]) of the same molecule?
**A.** 683.3+352.67 CFU/Organs

**Q.** What about the “CFU/Organs (Mean+ SD) Liver” value (A. fumigatus [1]; [6]) of the same molecule?
**A.** 225.0+91.85 CFU/Organs

**Q.** What about the “CFU/Organs (Mean+ SD) Lung” value (A. fumigatus [1]; [6]) of the same molecule?
**A.** 525.0+251.56 CFU/Organs

**Q.** And the “CFU/Organs (Mean+ SD) Kidney” value (A. fumigatus [1]; [7])?
**A.** 225.0+157.39 CFU/Organs

**Q.** And the “CFU/Organs (Mean+ SD) Liver” value (A. fumigatus [1]; [7])?
**A.** 165.0+117.84 CFU/Organs

**Q.** What about the “CFU/Organs (Mean+ SD) Lung” value (A. fumigatus [1]; [7]) of the same molecule?
**A.** 180.0+127.75 CFU/Organs

**Q.** What about the “effect on the CFUs in the lung tissue” value (A. fumigatus [1]; doses of 25.0 and 50.0 mg/kg body weight) of the same molecule?
**A.** did not have any effect

**Q.** And the “effect of the compound on CFUs in liver” value (A. fumigatus [1]; liver)?
**A.** very less effect

**Q.** What about the “ED50 (effective dose required to confer protection in 50% of the animals)” value (A. fumigatus [2]) of the same molecule?
**A.** 167.0 mg/kg body weight

**Q.** And the MIC (Aspergillus)?
**A.** 5 µg/disc

**Q.** And the MIC (Aspergillus; listed as novel antifungal lead molecule)?
**A.** 5.0 µg/disc
